Data reported in patent US8975267B2, “Tricyclic pyrrolo derivatives, process for their preparation and their use as kinase inhibitors” (Nerviano Medical Sciences S.r.l., priority 2011, dated 2015).
Structures can show the parent of a compound that is named as a salt.

Key:
PIM-2 = PIM-2 (Homo sapiens (Human), UniProt Q9P1W9); assay: PIM-2 kinase inhibition assay: Dowex technique; assay type: biochemical; conditions: 4 microM ATP, 5 microM Aktide, 1.5 nM enzyme
Protocol: Method for PIM-2 Kinase Inhibition Assay: Dowex Technique
The buffer for PIM-2 assay was composed of HEPES 50 mM, at pH 7.5, with 1 mM MgCl2, 1 mM DTT, 3 microM Na3VO4, and 0.2 mg/mL BSA
Full-length human PIM-2 was expressed and purified as described in Fedorov O, et al., PNAS 2007 104, 51, 20523-28.
Enzyme concentration=1.5 nM
Aktide substrate (Chemical Abstract Service Registry Number 324029-01-8)=5 microM
See above: same procedure as described for PIM-1.

PIM-1 = PIM-1 (Homo sapiens (Human), UniProt P11309); assay: Biochemical assay for inhibitors of PIM-1 kinase activity (trans-phosphorylation, Dowex); conditions: 200 microM ATP, 25 microM Aktide, 1 nM enzyme
Protocol: Biochemical Assay for Inhibitors of PIM-1 Kinase Activity
(§1) The inhibitory activity of putative kinase inhibitors and the potency of selected compounds were determined using a trans-phosphorylation assay.
(§2) Specific peptide or protein substrates are trans-phosphorylated by their specific ser-thr or tyr kinase in the presence of ATP traced with ^33P-γ-ATP, and in the presence of their own optimal buffer and cofactors.
(§3) At the end of the phosphorylation reaction, more than 98% unlabeled ATP and radioactive ATP is captured by an excess of the ion exchange dowex resin; the resin then settles down to the bottom of the reaction plate by gravity.
Supernatant is subsequently withdrawn and transferred into a counting plate, then evaluated by β-counting.
The buffer for PIM-1 assay was composed of HEPES 50 mM, at pH 7.5, with 10 mM MgCl2, 1 mM DTT, 3 microM NaVO3, and 0.2 mg/ml BSA
Full-length human PIM-1 was expressed and purified as described in Bullock A N, et al., J. Biol. Chem. 2005, 280, 41675-82.
ATP concentration: 200 microM
Enzyme concentration: 1 nM
Substrate concentration Aktide (Chemical Abstract Service Registry Number 324029-01-8): 25 microM
For IC50 determination, test compounds are received as a 1 mM solution in 100% DMSO and distributed into 96-well plates: compounds are then plated into the first column of a new 96-well plate (A1 to G1), 100 microL/well.
An automated station (Biomek FX, Beckman) is used for serial dilutions, producing 1:3 dilutions in 100% DMSO, from line A1 to A10, for all the compounds in the column. Moreover, 4-5 copies of daughter plates are prepared by reformatting 5 microL of this first set of 100% DMSO dilution plates into 384-deep well plates: one copy of these serial dilution plates with the test compounds is thawed on the day of study, reconstituted at the working concentration (3-fold the final concentration) with 162 microL/well of water and used for IC50 determination assays. In a standard experiment, the highest concentration (3×) of compounds is typically 30 microM, while the lowest one is typically 1.5 nM.
Each 384-well plate generates at least one curve of the standard inhibitor staurosporine and reference wells (total enzyme activity vs. no enzymatic activity) for evaluation of Z′ and signal to background (S/B) ratio.
384-well plates, V bottom (test plates) are prepared with 5 microL of compound diluted as previously described (3×) and then placed onto a PlateTrak 12 robotized station (Perkin Elmer; the robot has one 384-tip pipetting head for assay start, plus one 96-tip head for dispensing resin) together with one reservoir for Enzyme mix (3×) and one for ATP mix (3×).
Data are analyzed by an internally customized version of the “Assay Explorer” SW package, which provides sigmoidal fitting of the ten-dilution curves for IC50 determination in secondary assay/hit confirmation routines.

MPS1 = MPS1 (Homo sapiens (Human), UniProt P33981); assay: Biochemical assay for inhibitors of MPS1 kinase activity (trans-phosphorylation, Dowex); conditions: 15 microM ATP, 200 microM P38-βtide substrate, 5 nM MPS1
Protocol: Cloning, Expression and Purification of Recombinant MPS1 Full Length Protein.
MPS1 full length (corresponding to residues 2-857 of the full length sequence, see Swiss-Prot accession number P33981) was PCR amplified from the full-length human MPS1 gene present in house as clone pGEX4t_MPS1.
To get a fully activated enzyme, the protein was then subjected to auto-phosphorylation in presence of ATP 1 mM at 25° C. for 2 hours in kinase buffer (Hepes pH7.5 50 mM, MgCl2 2.5 mM, MnCl2 1 mM, DTT 1 mM, phosphatase inhibitors); ATP was then removed whit a desalting column.
Biochemical Assay for Inhibitors of MPS1 Kinase Activity
as §1, §2
as §3, with “gravity. Supernatant is subsequently withdrawn and transferred into a counting plate, then evaluated by β-counting.” for “gravity.”
The buffer for MPS1 assay was composed of HEPES 50 mM, at pH 7.5, with 2.5 mM MgCl2, 1 mM MnCl2, 1 mM DTT, 3 microM Na3VO4, 2 mM β-glycerophosphate and 0.2 mg/mL BSA.
The assay was run with a final concentration MPS1 of 5 nM, in the presence of 15 microM ATP and 1.5 nM ^33P-γ-ATP; the substrate was P38-βtide, used at 200 microM.
a) for percent inhibition studies (HTS), individual dilution plates at 1 mM are diluted at a 3× concentration (30 microM) in ddH2O (3% DMSO=final concentration) using a Beckman NX automated pipetting platform. The same instrument is used for distributing the diluted mother plates into the test plates. b) for IC50 determination (KSS platform), 100 microL of each compound at 1 mM in 100% DMSO are transferred from the original plate into the first column of another 96 well plate (A1 to G1); well H1 is left empty for the internal standard inhibitor, usually staurosporine.
An automated station for serial dilutions (Biomek FX, Beckman) is used for producing 1:3 dilutions in 100% DMSO, from line A1 to A10, and for all the seven compounds in the column. Moreover, 4-5 copies of daughter plates are prepared by reformatting 5 microL of this first set of 100% DMSO dilution plates into 384 deep well-plates: one copy of the daughter plates with the serial dilutions of test compounds will be thaw the day of the experiments, reconstituted at a 3× concentration with water and used in the IC50 determination assays. In a standard experiment, the highest concentration (3×) of all compounds is 30 microM, while the lowest one is 1.5 nM.
384-well plates, V bottom (test plates) are prepared with 5 microL of the compound dilution (3×) and then placed onto a PlateTrak 12 robotized station (Perkin Elmer; the robot has one 384-tips pipetting head for starting the assay plus one 96-tips head for dispensing the resin) together with one reservoir for the Enzyme mix (3×) and one for the ATP mix (3×).
At the start of the run, the robot aspirates 5 microL of ATP mix, makes an air gap inside the tips (2 microL) and aspirates 5 microL of MPS1 mix. The following dispensation into the plates allows the kinase reaction to start upon 3 cycles of mixing, done by the robot itself.
The robot incubates the plates for 60 minutes at room temperature, and then stops the reaction by pipetting 70 microL of dowex resin suspension into the reaction mix. Three cycles of mixing are done immediately after the addition of the resin.
Another mixing cycle is performed after all the plates are stopped, this time using normal tips: the plates are then allowed to rest for about one hour in order to maximize ATP capture. […]

MPS1, sequence (P33981 2-857): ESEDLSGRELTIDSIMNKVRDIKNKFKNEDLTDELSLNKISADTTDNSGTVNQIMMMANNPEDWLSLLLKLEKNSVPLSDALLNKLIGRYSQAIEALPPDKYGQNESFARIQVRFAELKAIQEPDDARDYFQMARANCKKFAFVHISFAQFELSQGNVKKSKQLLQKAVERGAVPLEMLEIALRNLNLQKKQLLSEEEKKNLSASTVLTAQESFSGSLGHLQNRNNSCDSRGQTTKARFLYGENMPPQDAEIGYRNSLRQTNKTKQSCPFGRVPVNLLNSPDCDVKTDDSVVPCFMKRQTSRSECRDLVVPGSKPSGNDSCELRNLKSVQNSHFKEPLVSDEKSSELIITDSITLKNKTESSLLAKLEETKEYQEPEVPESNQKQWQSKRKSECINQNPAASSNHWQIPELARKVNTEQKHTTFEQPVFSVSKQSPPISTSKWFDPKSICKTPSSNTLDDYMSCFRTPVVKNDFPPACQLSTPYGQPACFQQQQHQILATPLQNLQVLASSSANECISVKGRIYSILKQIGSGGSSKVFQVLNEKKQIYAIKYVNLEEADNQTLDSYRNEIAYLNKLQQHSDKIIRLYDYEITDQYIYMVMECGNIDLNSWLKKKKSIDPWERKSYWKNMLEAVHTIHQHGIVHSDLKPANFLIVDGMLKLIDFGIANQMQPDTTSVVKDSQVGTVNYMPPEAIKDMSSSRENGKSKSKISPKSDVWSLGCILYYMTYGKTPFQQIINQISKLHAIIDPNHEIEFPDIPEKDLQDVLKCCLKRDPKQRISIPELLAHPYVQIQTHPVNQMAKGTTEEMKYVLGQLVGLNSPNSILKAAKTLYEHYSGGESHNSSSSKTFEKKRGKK
PIM-1, sequence (P11309 whole entry): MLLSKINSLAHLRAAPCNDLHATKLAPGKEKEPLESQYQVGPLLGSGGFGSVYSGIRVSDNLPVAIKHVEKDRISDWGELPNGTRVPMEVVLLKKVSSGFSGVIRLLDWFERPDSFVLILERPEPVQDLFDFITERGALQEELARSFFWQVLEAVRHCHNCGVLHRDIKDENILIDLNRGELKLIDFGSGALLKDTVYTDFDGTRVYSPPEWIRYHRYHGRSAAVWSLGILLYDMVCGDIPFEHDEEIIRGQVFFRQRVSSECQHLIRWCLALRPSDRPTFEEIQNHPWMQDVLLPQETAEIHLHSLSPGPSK
PIM-2, sequence (Q9P1W9 whole entry): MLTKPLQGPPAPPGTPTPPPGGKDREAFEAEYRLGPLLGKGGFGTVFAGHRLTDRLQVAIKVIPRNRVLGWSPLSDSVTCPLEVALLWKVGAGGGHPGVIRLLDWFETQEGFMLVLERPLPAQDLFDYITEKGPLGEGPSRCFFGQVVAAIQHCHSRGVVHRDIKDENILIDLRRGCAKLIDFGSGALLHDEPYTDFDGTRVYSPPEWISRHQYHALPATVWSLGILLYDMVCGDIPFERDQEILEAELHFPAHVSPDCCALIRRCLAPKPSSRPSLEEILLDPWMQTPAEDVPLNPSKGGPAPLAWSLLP

SMILES	IC50 (PIM-2)	IC50 (PIM-1)	IC50 (MPS1)
CSc1ncc2c(n1)-c1c(c(C(N)=O)cn1C1CCNCC1)CC2 [Compound 32, 2-(methylsulfanyl)-9-(piperidin-4-yl)-6,9-dihydro-5H-pyrrolo[3,2-h]quinazoline-7-carboxamide hydrochloride]	159 nM	74 nM	> 10000 nM
CSc1ncc2ccc3c(C(N)=O)cn(CC(C)(C)CN)c3c2n1 [Compound 38, 9-(3-amino-2,2-dimethylpropyl)-2-(methylsulfanyl)-9H-pyrrolo[3,2-h]quinazoline-7-carboxamide hydrochloride]	34 nM	24 nM	2940 nM
CSc1ncc2c(n1)-c1c(c(C(N)=O)cn1C(C)C)CC2 [Compound 22, 2-(methylsulfanyl)-9-(propan-2-yl)-6,9-dihydro-5H-pyrrolo[3,2-h]quinazoline-7-carboxamide]	24 nM	16 nM	382 nM
Cn1c2c(c(C(N)=O)c1-c1ccccc1)CCc1cnc(N)nc1-2 [compound 3, 2-amino-9-methyl-8-phenyl-6,9-dihydro-5H-pyrrolo[3,2-h]quinazoline-7-carboxamide, reference compound]	> 10000 nM	> 5000 nM	> 5000 nM
NC(=O)c1c(-c2ccccc2)[nH]c2c1ccc1cnc(N)nc12 [compound 2, 2-amino-8-phenyl-9H-pyrrolo[3,2-h]quinazoline-7-carboxamide, reference compound]	> 10000 nM	> 5000 nM	> 5000 nM
CCc1cccc(CC)c1NC(=O)c1c2c(n(C)c1C)-c1nc(Nc3ccc(N4CCC(N5CCCC5)CC4)cc3OC)ncc1CC2 [Compound 3, N-(2,6-diethylphenyl)-2-({2-methoxy-4-[4-(pyrrolidin-1-yl)piperidin-1-yl]phenyl}amino)-8,9-dimethyl-6,9-dihydro-5H-pyrrolo[3,2-h]quinazoline-7-carboxamide]	> 10000 nM	> 10000 nM	99 nM
COc1cc(N2CCN(C)CC2)ccc1Nc1ncc2c(n1)-c1c(c(C(N)=O)c(C)n1C)CC2 [Compound 7, 2-{[2-methoxy-4-(4-methylpiperazin-1-yl)phenyl]amino}-8,9-dimethyl-6,9-dihydro-5H-pyrrolo[3,2-h]quinazoline-7-carboxamide]	> 5000 nM	748 nM	23 nM
Cn1c(-c2ccccc2)c(C(N)=O)c2ccc3cnc(N)nc3c21 [compound 4, 2-amino-9-methyl-8-phenyl-9H-pyrrolo[3,2-h]quinazoline-7-carboxamide, reference compound]	> 10000 nM	> 5000 nM	> 5000 nM
CSc1ncc2ccc3c(C(N)=O)c(C)n(C(C)C)c3c2n1 [Compound 30, 8-methyl-2-(methylsulfanyl)-9-(propan-2-yl)-9H-pyrrolo[3,2-h]quinazoline-7-carboxamide]	12 nM	4 nM	622 nM
CSc1ncc2ccc3c(C(N)=O)cn([C@H]4CC[C@@H](N)CC4)c3c2n1 [Compound 34, 9-(cis-4-aminocyclohexyl)-2-(methylsulfanyl)-9H-pyrrolo[3,2-h]quinazoline-7-carboxamide]	1 nM	0.8 nM	855 nM
CSc1ncc2c(n1)-c1c(c(C(N)=O)cn1CCO)CC2 [Compound 25, 9-(2-hydroxyethyl)-2-(methylsulfanyl)-6,9-dihydro-5H-pyrrolo[3,2-h]quinazoline-7-carboxamide]	540 nM	133 nM	2440 nM
CCc1cccc(CC)c1NC(=O)c1cn(C)c2c1CCCc1cnc(Nc3ccc(N4CCN(C)CC4)cc3OC)nc1-2 [Compound 16, N-(2,6-diethylphenyl)-2-{[2-methoxy-4-(4-methylpiperazin-1-yl)phenyl]amino}-10-methyl-5,6,7,10-tetrahydropyrrolo[3′,2′:6,7]cyclohepta[1,2-d]pyrimidine-8-carboxamide]	> 10000 nM	> 10000 nM	132 nM
CSc1ncc2ccc3c(C(N)=O)c(C)n(CCO)c3c2n1 [Compound 29, 9-(2-hydroxyethyl)-8-methyl-2-(methylsulfanyl)-9H-pyrrolo[3,2-h]quinazoline-7-carboxamide]	408 nM	87 nM	2940 nM
CSc1ncc2c(n1)-c1c(c(C(N)=O)cn1[C@H]1CC[C@@H](N)CC1)CC2 [Compound 33, 9-(cis 4-aminocyclohexyl)-2-(methylsulfanyl)-6,9-dihydro-5H-pyrrolo[3,2-h]quinazoline-7-carboxamide hydrochloride]	7 nM	5 nM	1550 nM
CSc1ncc2ccc3c(C(N)=O)cn(C4CCNCC4)c3c2n1 [Compound 35, 2-(methylsulfanyl)-9-(piperidin-4-yl)-9H-pyrrolo[3,2-h]quinazoline-7-carboxamide]	23 nM	7 nM	4550 nM
CSc1ncc2ccc3c(C(N)=O)c[nH]c3c2n1 [Compound 36, 2-(methylsulfanyl)-9H-pyrrolo[3,2-h]quinazoline-7-carboxamide]	46 nM	13 nM	814 nM
Cn1cc(C(N)=O)c2c1-c1nc(N)ncc1CC2 [Ref. cmpound 1, 2-amino-9-methyl-6,9-dihydro-5H-pyrrolo[3,2-h]quinazoline-7-carboxamide, reference compound]	> 10000 nM	> 10000 nM	> 10000 nM
